Here are results for three compounds from publication PMC3479967 (Evidence-based Complementary and Alternative Medicine : eCAM, 2012).

Data set [1] is described as follows: Calculation of possible maximum concentrations in blood. Also on record: species or system human. As to conditions: calculated, after a single oral administration of Epimedium pubescens decoction.
Data set [2] has as its target T1, UGT2B4 (Homo sapiens, UniProt P06133).
T1 sequence (P06133 24-528): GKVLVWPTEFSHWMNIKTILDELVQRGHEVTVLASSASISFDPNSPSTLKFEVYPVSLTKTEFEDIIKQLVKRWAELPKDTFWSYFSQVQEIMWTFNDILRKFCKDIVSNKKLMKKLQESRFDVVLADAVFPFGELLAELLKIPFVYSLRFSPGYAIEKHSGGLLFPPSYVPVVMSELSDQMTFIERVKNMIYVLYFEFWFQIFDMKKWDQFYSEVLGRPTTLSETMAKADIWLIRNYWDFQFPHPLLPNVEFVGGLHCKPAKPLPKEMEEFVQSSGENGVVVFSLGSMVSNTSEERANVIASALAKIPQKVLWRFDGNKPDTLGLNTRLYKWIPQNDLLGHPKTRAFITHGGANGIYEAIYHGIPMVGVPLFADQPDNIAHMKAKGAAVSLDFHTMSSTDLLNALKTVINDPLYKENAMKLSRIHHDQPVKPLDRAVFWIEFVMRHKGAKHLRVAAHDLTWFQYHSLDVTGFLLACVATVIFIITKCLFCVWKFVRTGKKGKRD
Kind of data set: Inhibition of recombinant UGT2B4 activity (4-MU glucuronidation). The method, then: (§1) A panel of recombinant human UGT supersomes (UGT1A1, UGT1A3, UGT1A4, UGT1A6, UGT1A7, UGT1A8, UGT1A9, UGT1A10, UGT2B4, UGT2B7, UGT2B15, and UGT2B17) expressed in baculovirus-infected insect cells were purchased from BD Gentest Corp. (Woburn, MA, USA).
(§2) 4-MU, a nonselective substrate of UGTs, was used as probe substrate for all UGTs except UGT1A4. Incubations with each individual enzyme were conducted using conditions previously described. There was a 5 min preincubation step at 37°C before the reaction was started by addition of UDPGA. The incubation mixtures were then centrifuged at 20,500 ×g for 15 min to obtain the supernatant. Aliquots (20 μL) were then analyzed by HPLC. The HPLC system (SHIMADZU, Kyoto, Japan) consisted of an SCL-10A system controller, two LC-10AT pumps, a SIL-10A auto injector, and a SPD-10AVP UV detector. Chromatographic separation was achieved using a Kromasil ODS column (4.6 × 150 mm I.D., 5 μm particle size) at a flow rate of 1 mL/min and UV detection at 316 nm. The mobile phase consisted of 10 mM KH2PO4, pH 2.7 (A) and acetonitrile (B). The following gradient was applied at a flow rate of 1 mL/min: 0–4 min 80% A and 20% B, 4.1–8 min 50% A and 50% B, 8.1–12 min, 30% A and 70% B. All experiments were performed in two independent experiments in duplicate.
(§3) A typical incubation mixture contained recombinant human UGTs, 5 mM MgCl2, 5 mM UDPGA, 50 μg/mg protein alamethicin, 50 mM Tris-HCl buffer (pH 7.4), and various probe substrates of UGTs in the absence or presence of different concentrations of inhibitors. […] The final concentration of DMSO in the incubation system was 1% (v/v). […]
(§4) Inhibition data from experiments were graphically represented by Dixon plots. K i values were calculated by nonlinear regression using the equations for competitive inhibition (1), noncompetitive inhibition (2), or mixed inhibition (3), [22] […] The type of inhibition was determined from the enzyme inhibition models. Goodness of fit to kinetic and inhibition models was assessed from the F statistic, r ^2 values, parameter standard error estimates, and 95% confidence intervals. […]

For data set [3], the target named is T2, UGT1A1 (Homo sapiens, UniProt P22309).
T2 sequence (P22309 26-533): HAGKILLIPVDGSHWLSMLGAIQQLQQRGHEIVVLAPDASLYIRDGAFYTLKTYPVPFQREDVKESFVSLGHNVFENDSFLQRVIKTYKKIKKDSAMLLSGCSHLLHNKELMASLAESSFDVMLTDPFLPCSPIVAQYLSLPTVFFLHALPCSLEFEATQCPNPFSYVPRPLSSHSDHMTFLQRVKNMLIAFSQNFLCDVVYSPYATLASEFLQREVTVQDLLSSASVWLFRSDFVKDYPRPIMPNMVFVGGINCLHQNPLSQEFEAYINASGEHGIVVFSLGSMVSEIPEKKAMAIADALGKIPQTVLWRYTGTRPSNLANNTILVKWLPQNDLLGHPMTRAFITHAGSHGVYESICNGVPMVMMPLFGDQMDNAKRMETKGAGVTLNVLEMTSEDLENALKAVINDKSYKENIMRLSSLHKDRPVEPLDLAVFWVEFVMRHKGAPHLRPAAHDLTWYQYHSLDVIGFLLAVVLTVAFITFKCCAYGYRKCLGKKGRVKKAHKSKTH
Kind of data set: Inhibition of recombinant UGT1A1 activity (4-MU glucuronidation). The method, then:
as §1, §2, §3, §4

As usually defined, the IC50 is the concentration needed to halve the response being measured. For `COc1ccc(-c2oc3c(CC=C(C)C)c(O)cc(O)c3c(=O)c2O)cc1` [Icaritin], the “Possible maximum concentration in human blood” value (“Possible maximum concentration” below) in data set [1] is on record as roughly 1.5 nM. Moreover, the 50% inhibitory concentration (IC50) in data set [2] and in data set [3] was greater than 100 µM throughout.

As for `COc1ccc(-c2oc3c(CC=C(C)C)c(O[C@@H]4O[C@H](CO)[C@@H](O)[C@H](O)[C@H]4O)cc(O)c3c(=O)c2O[C@@H]2O[C@@H](C)[C@H](O)[C@@H](O)[C@H]2O)cc1` [Icariin], in data set [1], the “Possible maximum concentration” value was “about 1.3 nM”. The IC50 in data set [2] and in data set [3] was greater than 100 µM throughout.

Regarding `COc1ccc(-c2oc3c(CC=C(C)C)c(O[C@@H]4O[C@H](CO)[C@@H](O)[C@H](O)[C@H]4O)cc(O)c3c(=O)c2O)cc1` [Icariside I], the “Possible maximum concentration” value in data set [1] is reported as roughly 0.1 nM. For the same compound, the 50% inhibitory concentration (IC50) in data set [2] and in data set [3] was greater than 100 µM throughout.
